{"source": "patent US6197535A", "about": "“Methods for purifying and assaying a conus γ-carboxylase” (University of Utah Research Foundation, priority 1999, dated 2001)", "tested_on": "Conus γ-glutamyl carboxylase (Conus radiatus venom duct microsomes)", "assay_type": "biochemical", "settings": "for Km: read-out: apparent Km", "note": "pIC50: −log10 of the molar value."}
{"substance": "GKDRLTQMKRILKQRGNKAR [Pro (-20 to -1)]", "values": [{"measurement": "enhancement of carboxylation of E.Con-G", "result": "~ 25%"}, {"measurement": "enhancement of carboxylation of FLEEL", "result": 40, "unit": "%"}, {"measurement": "inhibition of carboxylation of -10.Pro-E.Con-G", "result": "is an inhibitor"}, {"measurement": "pIC50", "setting": "read-out: apparent IC50", "result": 3.31}]}
{"substance": "GKDRLTQMKRILKQRGNKAR-GEEELY-NH2 [wild type substrate]", "values": [{"measurement": "Km", "result": 40, "unit": "µM"}]}
{"substance": "GEEELQENQELIREKSN-NH2 [E.Con-G]", "values": [{"measurement": "Km", "result": 3400, "unit": "µM"}]}
